# Where two headings read alike, the source gives them in different places.
# Experiments:
# [1] = for Blood T1: before contrast 510
# [2] = Abdominal NMR imaging in rabbits (Example 11); format: in vivo
# Procedure: Two rabbits were anesthetized and abdominal NMR images were obtained in the General Electric NMR scanner. Rabbits then received intravenous doses of 0.3 ml/kg (0.5 mmol Gd(III)/kg) of the preparation of composition D of Example 1 (GdNa2 DTPA) and additional abdominal NMR images were made over a period of two hours after dosing.
# [3] = Acute intravenous toxicity of GdNa2 DTPA in mice (Example 7); format: in vivo, Swiss CF-1 albino mice
# Excerpt: The acute intravenous toxicity of disodium (diethylenetriaminepentaacetato)gadolinium (III) (composition C of Example 1) was studied.
# A total of 16 Swiss CF-1 albino mice (8 male, 22.0-25.6 g; 8 female, 18.2-24.1 g) were used. Picric acid markings were used for individual identification.
# The protocol of Example 4 was used. Groups of 2-4 mice, with sexes equally represented, received single intravenous doses of the test substance according to the following schedule: […]
# [4] = 0.34 mmol Gd(III)/kg, 10 minutes
smiles,measurement,setting,value
"O=C([O-])CN(CCN(CC(=O)[O-])CC(=O)[O-])CCN(CC(=O)[O-])CC(=O)[O-].[Gd+3].[Na+].[Na+] [GdNa2 DTPA, disodium (diethylenetriaminepentaacetato)gadolinium (III)]","Mean T1, Blood","0.51 mmol/kg, 5 minutes",292 ms
same,"Mean T1, Blood","0.51 mmol/kg, 10 minutes",321 ms
same,"Mean T1, Blood","0.51 mmol/kg, 15 minutes",337 ms
same,"Mean tissue T1, Fat","0.51 mmol/kg, 15 minutes",61 ms
same,"Mean tissue T1, Heart","0.51 mmol/kg, 15 minutes",267 ms
same,"Mean tissue T1, Large Intestine","0.51 mmol/kg, 15 minutes",228 ms
same,"Mean tissue T1, Liver","0.51 mmol/kg, 15 minutes",172 ms
same,"Mean tissue T1, Lung","0.51 mmol/kg, 15 minutes",303 ms
same,"Mean tissue T1, Pancreas","0.51 mmol/kg, 15 minutes",172 ms
same,"Mean tissue T1, Renal Cortex","0.51 mmol/kg, 15 minutes",137 ms
same,"Mean tissue T1, Renal Medulla","0.51 mmol/kg, 15 minutes",130 ms
same,"Mean tissue T1, Skel. Muscle","0.51 mmol/kg, 15 minutes",217 ms
same,"Mean tissue T1, Small Intestine","0.51 mmol/kg, 15 minutes",224 ms
same,"Mean tissue T1, Spleen","0.51 mmol/kg, 15 minutes",257 ms
same,"Mean tissue T1, Stomach","0.51 mmol/kg, 15 minutes",219 ms
same,changes in T1 relative to changes in T2,"0.1, 0.3 and 1.0 ml/kg i.v.",generally greater than changes in T2 values
same,tissue and blood T1 and T2 values (in words),"0.1, 0.3 and 1.0 ml/kg i.v.",Dose-related changes in tissue and blood T1 and T2 values
same,tissues with the most profound effects on T1,"0.1, 0.3 and 1.0 ml/kg i.v.","blood and kidneys (both cortex and medulla) with large intestine, pancreas and stomach the next most sensitive"
same,Cardiovascular effects,"rabbit, in vivo, iv",minimal
same,"T1, infarcted regions of heart muscle","[1]; 0.17 mmol Gd(III)/kg, 10 minutes",290 ms
same,"T1, normally perfused myocardial tissue","[1]; 0.17 mmol Gd(III)/kg, 10 minutes, untreated 330",180 ms
same,"average T1, infarcted tissue",[1]; 0.34 mmol Gd(III)/kg,230 ms
same,Blood T1,"[1]; 0.34 mmol Gd(III)/kg, 5 minutes",50 ms
same,"images of excised hearts, normal versus infarcted tissue",[1]; [4],marked differences between normal and infarcted tissues
same,Blood T1,[1]; [4],100 ms
same,"average T1, normally perfused myocardium","[1]; 0.34 mmol Gd(III)/kg, untreated 330",135 ms
same,renal medulla and renal cortex proton images,[2]; 0.3 ml/kg (0.5 mmol Gd(III)/kg) i.v.,Marked alteration
same,time of peak effects on renal images,[2]; 0.3 ml/kg i.v.,≤ 15 min
same,dose up to which no deaths were observed,"[3]; intravenous, mice",12000 mg/kg
same,acute intravenous toxicity profile (in words),[3]; mouse,relatively safe mouse acute intravenous toxicity profile
same,body weight (in words),"[3]; mouse, in vivo",slight reduction in body weight
same,respiratory distress,"[3]; mouse, in vivo",respiratory distress was observed
same,time until all mice appeared normal,"[3]; mouse, in vivo",≤ 6 h

# Reference: patent US5407660A, “Diagnostic liposomal compositions for enhancing NMR imaging” (Mallinckrodt Medical, Inc., priority 1993, dated 1995)
